US20150352108A1, “AMINO-PYRIMIDINE COMPOUNDS AS INHIBITORS OF TBK1 AND/OR IKK EPSILON” (Alzheimer's Institute of America, priority 2009, published 2015)

Key:
[1] = system: IKKε-mediated phosphorylation of IRF3; test: In-situ phosphorylation of IRF3 (pIRF3 Ser396 ELISA) in HEK293T cells cotransfected with IRF3 and IKKε; assay type: cell-based; details: Homo sapiens, HEK-293T; HEK293T cells, 20 hours, text bins; read-out: IC50 for inhibition of the in-situ IKKε-mediated phosphorylation of IRF3
Protocol: HEK293T cells were cotransfected in a 10-cm dish with IRF3 and IKKε expression plasmids using Lipofectamine 2000 (Invitrogen, Carlsbad, Calif.). The following day, cells were replated at 20,000 per well in 96-well plates and treated with test compounds (compounds according to Formula I) for 20 hours. Cell lysates were prepared and analyzed using an ELISA for phospho-Ser396 (anti-IRF3 capture antibody, Santa Cruz Biotechnology, Inc., Santa Cruz, Calif.; anti-p-Ser396 IRF3 detection antibody, Cell Signaling, Danvers, Mass.). pIRF3 levels in compound treated cells were normalized to DMSO treated cells (no compound). Cell viability was assayed in a parallel set of plates to monitor cytotoxic effects of the test compounds (CellTiter-Glo, Promega, Inc., Madison, Wis.). TBK1 activity was tested by Western blotting using a phospho-specific IRF7 antibody. Similar to above, HEK293T cells were transfected with IRF7 and TBK1 expression plasmids. Cells were seeded in 12-well plates at 150,000 per well and treated overnight with test compounds. Protein lysates were prepared and processed for Western blotting followed by detection using a phosphor-Ser477/Ser479 IRF7 antibody (BD Biosciences, San Jose, Calif.)

IKKε = molecular target: T1, IKKε (Homo sapiens, UniProt Q14164); test: In-vitro IKKε kinase assay ([γ33]ATP filter-plate); assay type: biochemical; details: text bins; read-out: IC50 for inhibition of the kinase activity of IKKε
T1 construct: His-tag; made in house; host or cells: Sf9 insect cells
T1 sequence (Q14164 1-716): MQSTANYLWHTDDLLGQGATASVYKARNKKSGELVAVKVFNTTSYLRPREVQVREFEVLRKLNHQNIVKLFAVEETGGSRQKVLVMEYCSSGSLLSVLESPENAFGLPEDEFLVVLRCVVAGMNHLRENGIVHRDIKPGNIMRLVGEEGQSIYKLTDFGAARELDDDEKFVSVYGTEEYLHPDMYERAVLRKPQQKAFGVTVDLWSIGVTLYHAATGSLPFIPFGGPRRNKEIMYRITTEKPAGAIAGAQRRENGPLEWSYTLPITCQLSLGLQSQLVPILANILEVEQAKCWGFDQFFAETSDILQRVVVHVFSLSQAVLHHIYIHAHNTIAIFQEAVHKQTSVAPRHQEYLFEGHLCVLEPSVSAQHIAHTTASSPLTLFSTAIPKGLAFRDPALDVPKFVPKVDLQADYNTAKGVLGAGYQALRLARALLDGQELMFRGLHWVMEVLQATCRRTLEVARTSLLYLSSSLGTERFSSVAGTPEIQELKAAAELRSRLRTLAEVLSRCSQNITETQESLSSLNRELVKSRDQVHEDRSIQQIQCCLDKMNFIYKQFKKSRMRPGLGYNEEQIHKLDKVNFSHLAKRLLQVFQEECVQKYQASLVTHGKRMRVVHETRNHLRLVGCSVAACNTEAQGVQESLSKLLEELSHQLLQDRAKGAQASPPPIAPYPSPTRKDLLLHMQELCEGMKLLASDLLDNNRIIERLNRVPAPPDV
Outline: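 Phosphorylation of casein or myelin basic protein was counted by P-81 filter capture after 30-45 min reactions stopped with phosphoric acid, with counts normalized to DMSO after background subtraction. ATP was twice Km: 60 μM for TBK1 and 32 μM for IKKε, plus [γ33]ATP. Sf9-expressed His-tag enzymes were used at normal/sensitized levels of 0.1/0.02 μg/ml (TBK1) and 0.1/0.015 μg/ml (IKKε).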

Row | Compound | IC50 [1] [nM] | IC50 (IKKε) [nM]
1 | CC(=O)Nc1cccc(Nc2nccc(-c3ccc(OC4CCOCC4)c(C#N)c3)n2)c1 [compound 656, N-[3-({4-[3-Cyano-4-(tetrahydro-2H-pyran-4-yloxy)phenyl]pyrimidin-2-yl}amino)phenyl] acetamide] | < 100 | < 5
2 | CC(C)COc1ccc(-c2ccnc(Nc3ccc(N4CCN(CCO)CC4)cc3)n2)cc1C#N [compound 442, 5-[2-({4-[4-(2-Hydroxyethyl)piperazin-1-yl]phenyl}amino)pyrimidin-4-yl]-2-(2-methylpropoxy) benzonitrile] | < 100 | < 5
3 | N#Cc1cc(-c2ccnc(Nc3cccc(CN4CCCC4)c3)n2)ccc1OC1CCOCC1 [compound 542, 5-(2-{[3-(Pyrrolidin-1-ylmethyl)phenyl]amino}pyrimidin-4-yl)-2-(tetrahydro-2H-pyran-4-yloxy)benzonitrile] | < 100 | < 5
4 | C[C@H](O)C(=O)N1CCC(Oc2ccc(-c3ccnc(Nc4ccc(F)c(OCCN)c4)n3)cc2C#N)CC1 [compound 655] | 250 to 500 | < 5
5 | N#Cc1cc(-c2ccnc(Nc3ccc(S(=O)(=O)Nc4ccccn4)cc3)n2)ccc1OC1CCOCC1 [compound 593, 4-({4-[3-Cyano-4-(tetrahydro-2H-pyran-4-yloxy)phenyl]pyrimidin-2-yl}amino)-N-(pyridin-2-yl) benzenesulfonamide] | < 100 | < 5
6 | CN(C)C1CCN(c2cccc(Nc3nccc(-c4ccc(OC5CCOCC5)c(C#N)c4)n3)c2)C1 (stereo not drawn) [compound 591, 5-[2-({3-[3-(Dimethylamino)pyrrolidin-1-yl]phenyl}amino)pyrimidin-4-yl]-2-(tetrahydro-2H-pyran-4-yloxy)benzonitrile] | 100 to 250 | < 5
7 | N#Cc1cc(-c2ccnc(Nc3ccc(-n4cnnc4)cc3)n2)ccc1OC1CCOCC1 [compound 607, 2-(Tetrahydro-2H-pyran-4-yloxy)-5-(2-{[4-(4H-1,2,4-triazol-4-yl)phenyl]amino}pyrimidin-4-yl)benzonitrile] | 100 to 250 | < 5
8 | N#Cc1cc(-c2ccnc(Nc3ccc(F)c(OC4CCNC4)c3)n2)ccc1OCC1CC1 (stereo not drawn) [compound 670, 2-(Cyclopropyl-methoxy)-5-(2-{[4-fluoro-3-(pyrrolidin-3-yloxy)phenyl]amino}pyrimidin-4-yl)benzonitrile] | 250 to 500 | < 5
9 | Cc1ccc(Nc2nccc(-c3ccc(O[C@@H]4CCN(C(=O)CO)C4)c(C#N)c3)n2)cc1C [compound 643, 5-{2-[(3,4-Dimethylphenyl)amino]pyrimidin-4-yl}-2-{[(3R)-1-(hydroxyacetyl)pyrrolidin-3-yl]oxy}benzonitrile] | 250 to 500 | < 5
10 | CCN(CC)CCOc1cc(Nc2nccc(-c3ccc(OCC4CC4)c(C#N)c3)n2)ccc1F [compound 535, 2-(Cyclopropylmethoxy)-5-[2-({3-[2-(diethylamino)ethoxy]-4-fluorophenyl}amino)pyrimidin-4-yl]benzonitrile] | 250 to 500 | < 5
11 | CN(C)C1CCN(C(=O)Nc2cccc(Nc3nccc(-c4ccc(OC5CCOCC5)c(C#N)c4)n3)c2)C1 (stereo not drawn) [compound 667, N-[3-({4-[3-Cyano-4-(tetrahydro-2H-pyran-4-yloxy)phenyl]pyrimidin-2-yl}amino)phenyl]-3-(dimethylamino) pyrrolidine-1-carboxamide] | < 100 | < 5
12 | COCC(=O)Nc1cccc(Nc2nccc(-c3ccc(OC4CCOCC4)c(C#N)c3)n2)c1 [compound 647, N-[3-({4-[3-Cyano-4-(tetrahydro-2H-pyran-4-yloxy)phenyl]pyrimidin-2-yl}amino)phenyl]-2-methoxyacetamide] | < 100 | < 5
13 | COc1cc(Nc2ncc(F)c(-c3ccc(O[C@@H]4CCN(C(=O)CO)C4)c(C#N)c3)n2)ccc1N1CCOCC1 [compound 552, 5-(5-Fluoro-2-{[3-methoxy-4-(morpholin-4-yl)phenyl]amino}pyrimidin-4-yl)-2-{[(3R)-1-(hydroxyacetyl)pyrrolidin-3-yl]oxy}benzonitrile] | < 100 | < 5
14 | Cn1ccc(C(=O)Nc2cccc(Nc3nccc(-c4ccc(OC5CCOCC5)c(C#N)c4)n3)c2)n1 [compound 547, N-[3-({4-[3-Cyano-4-(tetrahydro-2H-pyran-4-yloxy)phenyl]pyrimidin-2-yl}amino)phenyl]-1-methyl-1H-pyrazole-3-carboxamide] | 100 to 250 | < 5
15 | CN(C)CCN(C)c1cccc(Nc2nccc(-c3ccc(OC4CCOCC4)c(C#N)c3)n2)c1 [compound 661] | < 100 | < 5
16 | N#Cc1cc(-c2ccnc(Nc3cccc(CN4CCOCC4)c3)n2)ccc1OC1CCOCC1 [compound 638, 5-(2-{[3-(Morpholin-4-ylmethyl)phenyl]amino}pyrimidin-4-yl)-2-(tetrahydro-2H-pyran-4-yloxy)benzonitrile] | < 100 | < 5
17 | N#Cc1cc(-c2ccnc(Nc3ccc(-n4cncn4)cc3)n2)ccc1OC1CCOCC1 [compound 580, 2-(Tetrahydro-2H-pyran-4-yloxy)-5-(2-{[4-(1H-1,2,4-triazol-1-yl)phenyl]amino}pyrimidin-4-yl)benzonitrile] | 250 to 500 | < 5
18 | CN(C)Cc1cccc(Nc2nccc(-c3ccc(O[C@@H]4CCN(C(=O)CO)C4)c(C#N)c3)n2)c1 [compound 642, 5-[2-({3-[(Dimethylamino)methyl]phenyl}amino)pyrimidin-4-yl]-2-{[(3R)-1-(hydroxyacetyl)pyrrolidin-3-yl]oxy}benzonitrile] | < 100 | < 5
19 | N#Cc1cc(-c2ccnc(Nc3cccc(N4CCC[C@H]4CO)c3)n2)ccc1O[C@@H]1CCN(C(=O)CO)C1 [compound 669, 2-{[(3R)-1-(Hydroxyacetyl)pyrrolidin-3-yl]oxy}-5-[2-({3-[(2S)-2-(hydrfoxymethyl)pyrrolidin-1-yl]phenyl}amino)pyrimidin-4-yl]benzonitrile] | 100 to 250 | < 5
20 | COc1cc(Nc2nccc(-c3ccc(OCC(C)C)c(C#N)c3)n2)ccc1CN1CC(OC)C1 [compound 600, 5-[2-({3-Methoxy-4-[(3-methoxyazetidin-1-yl)methyl]phenyl}amino)pyrimidin-4-yl]-2-(2-methylpropoxy) benzonitrile] | 100 to 250 | 5 to 50
21 | CCc1cccc(Nc2nccc(-c3ccc(O[C@@H]4CCN(C(=O)CO)C4)c(C#N)c3)n2)c1 [compound 544, 5-{2-[(3-Ethylphenyl)amino]pyrimidin-4-yl}-2-{[(3R)-1-(hydroxyacetyl)pyrrolidin-3-yl]oxy}benzonitrile] | 250 to 500 | < 5
22 | Cc1ccc(Nc2nccc(-c3ccc(OC4CCOCC4)c(C#N)c3)n2)cc1NCCN(C)C [compound 628, 5-[2-[[3-(2-dimethylamino-ethylamino)-4-methyl-phenyl]amino}pyrimidin-4-yl]-2-tetrahydropyran-4-yloxy-benzonitrile] | < 100 | < 5
23 | Cc1nccn1Cc1ccc(Nc2nccc(-c3ccc(OC4CCOCC4)c(C#N)c3)n2)cc1 [compound 609, 5-[2-({4-[(2-Methyl-1H-imidazol-1-yl)methyl]phenyl}amino)pyrimidin-4-yl]-2-(tetrahydro-2H-pyran-4-yloxy)benzonitrile] | < 100 | < 5
24 | CN(C)Cc1cccc(Nc2nccc(-c3ccc(OC4CCOCC4)c(C#N)c3)n2)c1 [compound 548, 5-[2-({3-[(Dimethylamino)methyl]phenyl}amino)pyrimidin-4-yl]-2-(tetrahydro-2H-pyran-4-yloxy)benzonitrile] | < 100 | < 5
